Measured values published in publication PMC9157728, “Albumin Binder–Conjugated Fibroblast Activation Protein Inhibitor Radiopharmaceuticals for Cancer Therapy” (Journal of Nuclear Medicine, 2022).

Legend:
[1] = Radiotherapy study: body weight and hematoxylin and eosin staining of main organs; type: in vivo; conditions: pancreatic cancer PDX-bearing mice after treatment
Procedure: (§1) ^68Ga-FAPI-04 PET imaging was performed to evaluate the tumor volume, and the mice were treated when their average tumor volume reached 35 mm^3. The PDX-bearing mice (6 groups, 7–9 mice per group) were treated by saline, 3.7 MBq of ^177Lu-FAPI-04, 1.85 MBq of ^177Lu-TEFAPI-06, 3.7 MBq of ^177Lu-TEFAPI-06, 1.85 MBq of ^177Lu-TEFAPI-07, or […] of ^177Lu-TEFAPI-07. Tumor volume and body weight were monitored every 2 or 3 d, and the animals were euthanized when the tumor volume exceeded 1,000 mm^3. Histopathologic staining was performed with an antihuman FAP monoclonal antibody (ab207178; Abcam), and hematoxylin and eosin staining was performed as previously described ([29]).

[2] = system: pancreatic cancer PDX tumors; test: SPECT imaging in pancreatic cancer PDX-bearing mice; type: in vivo; conditions: for tumor uptake at 6 d after injection (SPECT imaging and biodistribution): 6 d after the injection; for tumor-to-nontargeted-tissue signal ratios on SPECT: PDX tumor models, until 144 h after injection
Procedure: SPECT scans were performed on a Mediso nanoSPECT/CT imaging system. ^177Lu-TEFAPI-06 or ^177Lu-TEFAPI-07 SPECT imaging was performed on pancreatic cancer PDX–bearing mice at the indicated time points after intravenous injection of 37 MBq of ^177Lu-TEFAPI-06 or ^177Lu-TEFAPI-07, respectively.

[3] = Stability in vitro in saline and human serum (radio-HPLC); type: in vitro ADME; conditions: 7 d
Procedure: The radiolabeling of ^68Ga, ^86Y, and ^177Lu was performed by incubation with 50 nmol of precursor at pH 4.5–5.0 at 90°C for 10 min. The product was purified by C18 column extraction, and the radiochemical purity was determined by high-performance liquid chromatography equipped with a radioactivity detector. The stability of ^177Lu-TEFAPI-06 and ^177Lu-TEFAPI-07 in saline and human serum was monitored from 2 to 168 h using radio–high-performance liquid chromatography ([13]). More details about the radiochemistry, the quality control testing, and the stability assay can be found in the supplemental materials (section 3).

[4] = Ex vivo biodistribution study in PDX-bearing mice
Procedure: PDX-bearing mice were injected with 925.0 kBq of ^177Lu-TEFAPI-06 or ^177Lu-TEFAPI-07 for an ex vivo biodistribution study. The mice were killed at 24 h and 96 h after injection, the counts of the different organs were measured with a γ-counter, and the data were normalized to percentage injected dose (%ID)/g using 1% of total counts.

[5] = system: pancreatic cancer PDX tumors; test: Radiotherapy study in pancreatic cancer PDX-bearing mice (tumor growth); type: in vivo; conditions: 1.85 MBq or 3.7 MBq, vs saline or 3.7 MBq ^177Lu-FAPI-04
Procedure: as §1

| Compound | side effects, hematoxylin and eosin staining of the main organs [1] | tumor uptake at 6 d after injection (SPECT imaging and biodistribution) [2] | tumor-to-nontargeted-tissue signal ratios on SPECT [2] | radiochemistry purity after incubation in human serum [3] | radiochemistry purity after incubation in saline [3] | Blood uptake ([4]; 24 h after injection) | Bone uptake ([4]; 24 h after injection) | Brain uptake ([4]; 24 h after injection) | Fat uptake ([4]; 24 h after injection) | Heart uptake ([4]; 24 h after injection) | Kidney uptake ([4]; 24 h after injection) | Large intestine uptake ([4]; 24 h after injection) | Liver uptake ([4]; 24 h after injection) | Lung uptake ([4]; 24 h after injection) | Muscle uptake ([4]; 24 h after injection) | Pancreas uptake ([4]; 24 h after injection) | Small intestine uptake ([4]; 24 h after injection) | Spleen uptake ([4]; 24 h after injection) | Stomach uptake ([4]; 24 h after injection) | Tumor uptake ([4]; 24 h after injection) | further results |
| --- | --- | --- | --- | --- | --- | --- | --- | --- | --- | --- | --- | --- | --- | --- | --- | --- | --- | --- | --- | --- | --- |
| N#C[C@@H]1CC(F)(F)CN1C(=O)CNC(=O)c1ccnc2ccc(OCCCN3CCN(C(=O)[C@H](CCCCNC(=O)CN4CCN(CC(=O)[O-])CCN(CC(=O)[O-])CCN(CC(=O)[O-])CC4)NC(=O)CCCC(=O)N[C@@H](CCCCNC(=O)CCCc4ccc(I)cc4)C(=O)O)CC3)cc12.[177Lu+3] [^177Lu-TEFAPI-06] | almost negligible | still notable | high | over 90% | over 90% | 12.32 %ID/g | 1.32 %ID/g | 0.37 %ID/g | 1.86 %ID/g | 3.70 %ID/g | 3.20 %ID/g | 1.66 %ID/g | 2.98 %ID/g | 4.33 %ID/g | 1.09 %ID/g | 2.01 %ID/g | 2.55 %ID/g | 3.00 %ID/g | 1.75 %ID/g | 8.68 %ID/g | tumor-to-liver ratio ([4]; 24 h after injection): 2.91; Blood uptake ([4]; 96 h after injection): 2.25 %ID/g; Bone uptake ([4]; 96 h after injection): 0.35 %ID/g; Brain uptake ([4]; 96 h after injection): 0.09 %ID/g; Fat uptake ([4]; 96 h after injection): 1.55 %ID/g; Heart uptake ([4]; 96 h after injection): 1.51 %ID/g; Kidney uptake ([4]; 96 h after injection): 2.66 %ID/g; Large intestine uptake ([4]; 96 h after injection): 0.53 %ID/g; Liver uptake ([4]; 96 h after injection): 1.74 %ID/g; Lung uptake ([4]; 96 h after injection): 1.95 %ID/g; Muscle uptake ([4]; 96 h after injection): 0.45 %ID/g; Pancreas uptake ([4]; 96 h after injection): 0.75 %ID/g; Small intestine uptake ([4]; 96 h after injection): 0.61 %ID/g; Spleen uptake ([4]; 96 h after injection): 3.66 %ID/g; Stomach uptake ([4]; 96 h after injection): 0.54 %ID/g; Tumor uptake ([4]; 96 h after injection): 7.33 %ID/g; tumor-to-liver ratio ([4]; 96 h after injection): 4.21; tumor growth after treatment [5]: remarkable suppression of tumor growth |
| Cc1cc(-c2ccc(NC(=O)CCCC(=O)N[C@@H](CCCCNC(=O)CN3CCN(CC(=O)[O-])CCN(CC(=O)[O-])CCN(CC(=O)[O-])CC3)C(=O)N3CCN(CCCOc4ccc5nccc(C(=O)NCC(=O)N6CC(F)(F)C[C@H]6C#N)c5c4)CC3)c(C)c2)ccc1N=Nc1ccc2c(S(=O)(=O)O)cc(S(=O)(=O)O)c(N)c2c1O.[177Lu+3] [^177Lu-TEFAPI-07] | almost negligible | still notable | high | over 90% | over 90% | 5.64 %ID/g | 1.71 %ID/g | 0.23 %ID/g | 1.82 %ID/g | 2.53 %ID/g | 8.67 %ID/g | 1.15 %ID/g | 3.21 %ID/g | 2.58 %ID/g | 1.00 %ID/g | 2.16 %ID/g | 1.19 %ID/g | 2.69 %ID/g | 1.20 %ID/g | 7.87 %ID/g | tumor-to-liver ratio ([4]; 24 h after injection): 2.45; Blood uptake ([4]; 96 h after injection): 0.51 %ID/g; Bone uptake ([4]; 96 h after injection): 0.18 %ID/g; Fat uptake ([4]; 96 h after injection): 0.48 %ID/g; Heart uptake ([4]; 96 h after injection): 0.62 %ID/g; Kidney uptake ([4]; 96 h after injection): 10.16 %ID/g; Large intestine uptake ([4]; 96 h after injection): 0.10 %ID/g; Liver uptake ([4]; 96 h after injection): 2.31 %ID/g; Lung uptake ([4]; 96 h after injection): 0.73 %ID/g; Muscle uptake ([4]; 96 h after injection): 0.28 %ID/g; Pancreas uptake ([4]; 96 h after injection): 0.53 %ID/g; Small intestine uptake ([4]; 96 h after injection): 0.16 %ID/g; Spleen uptake ([4]; 96 h after injection): 1.88 %ID/g; Stomach uptake ([4]; 96 h after injection): 0.29 %ID/g; Tumor uptake ([4]; 96 h after injection): 7.57 %ID/g; tumor-to-liver ratio ([4]; 96 h after injection): 3.28; tumor growth after treatment [5]: remarkable suppression of tumor growth |
